Blank lines part the entries; values can stand above or below the molecule they belong to. Activity calls are given as the source filed them.
Columns and labels:
Cytochrome P450 3A4 = Cytochrome P450 3A4 (Homo sapiens, UniProt P08684); settings: Potency;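 also: confirmatory qHTS run detecting inhibitors and substrates of CYP3A4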
Kallikrein-7 = Kallikrein-7 (Homo sapiens, UniProt P49862); test: Fluorescence Intensity-based biochemical primary high throughput dose response assay to identify activators of kallikrein-7 (K7) zymogen.
Sequence of Kallikrein-7 (P49862 whole entry): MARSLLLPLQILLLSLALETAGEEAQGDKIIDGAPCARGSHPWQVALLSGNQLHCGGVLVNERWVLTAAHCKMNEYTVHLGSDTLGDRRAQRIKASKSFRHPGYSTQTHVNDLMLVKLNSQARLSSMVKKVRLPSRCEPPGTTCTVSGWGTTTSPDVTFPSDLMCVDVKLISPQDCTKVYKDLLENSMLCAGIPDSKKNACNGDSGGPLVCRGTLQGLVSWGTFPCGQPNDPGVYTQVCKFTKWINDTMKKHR

[1] = tested on: Streptococcus sp. 'group A'; test: Streptococcus pyogenes SK(-)GAS viability under kanamycin – luminescence, BacTiterGlo, confirmation, counter-screen for streptokinase expression inhibitor project, dose response (AID 1900); type: functional, organism-based
Streptococcus = test: GAS UMAA2166 growth inhibition – luminescence, BacTiterGlo, counter-screen for streptokinase expression inhibitor project, dose response (AID 1915); type: functional, organism-based;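 also: potency for reduction of bacterial viability or growth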
[2] = target: Voltage-dependent T-type calcium channel subunit alpha-1H (Homo sapiens, UniProt O95180); type: functional;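 also: channel activity triggered by adding a high calcium stimulation buffer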
Sequence of Voltage-dependent T-type calcium channel subunit alpha-1H (O95180 whole entry): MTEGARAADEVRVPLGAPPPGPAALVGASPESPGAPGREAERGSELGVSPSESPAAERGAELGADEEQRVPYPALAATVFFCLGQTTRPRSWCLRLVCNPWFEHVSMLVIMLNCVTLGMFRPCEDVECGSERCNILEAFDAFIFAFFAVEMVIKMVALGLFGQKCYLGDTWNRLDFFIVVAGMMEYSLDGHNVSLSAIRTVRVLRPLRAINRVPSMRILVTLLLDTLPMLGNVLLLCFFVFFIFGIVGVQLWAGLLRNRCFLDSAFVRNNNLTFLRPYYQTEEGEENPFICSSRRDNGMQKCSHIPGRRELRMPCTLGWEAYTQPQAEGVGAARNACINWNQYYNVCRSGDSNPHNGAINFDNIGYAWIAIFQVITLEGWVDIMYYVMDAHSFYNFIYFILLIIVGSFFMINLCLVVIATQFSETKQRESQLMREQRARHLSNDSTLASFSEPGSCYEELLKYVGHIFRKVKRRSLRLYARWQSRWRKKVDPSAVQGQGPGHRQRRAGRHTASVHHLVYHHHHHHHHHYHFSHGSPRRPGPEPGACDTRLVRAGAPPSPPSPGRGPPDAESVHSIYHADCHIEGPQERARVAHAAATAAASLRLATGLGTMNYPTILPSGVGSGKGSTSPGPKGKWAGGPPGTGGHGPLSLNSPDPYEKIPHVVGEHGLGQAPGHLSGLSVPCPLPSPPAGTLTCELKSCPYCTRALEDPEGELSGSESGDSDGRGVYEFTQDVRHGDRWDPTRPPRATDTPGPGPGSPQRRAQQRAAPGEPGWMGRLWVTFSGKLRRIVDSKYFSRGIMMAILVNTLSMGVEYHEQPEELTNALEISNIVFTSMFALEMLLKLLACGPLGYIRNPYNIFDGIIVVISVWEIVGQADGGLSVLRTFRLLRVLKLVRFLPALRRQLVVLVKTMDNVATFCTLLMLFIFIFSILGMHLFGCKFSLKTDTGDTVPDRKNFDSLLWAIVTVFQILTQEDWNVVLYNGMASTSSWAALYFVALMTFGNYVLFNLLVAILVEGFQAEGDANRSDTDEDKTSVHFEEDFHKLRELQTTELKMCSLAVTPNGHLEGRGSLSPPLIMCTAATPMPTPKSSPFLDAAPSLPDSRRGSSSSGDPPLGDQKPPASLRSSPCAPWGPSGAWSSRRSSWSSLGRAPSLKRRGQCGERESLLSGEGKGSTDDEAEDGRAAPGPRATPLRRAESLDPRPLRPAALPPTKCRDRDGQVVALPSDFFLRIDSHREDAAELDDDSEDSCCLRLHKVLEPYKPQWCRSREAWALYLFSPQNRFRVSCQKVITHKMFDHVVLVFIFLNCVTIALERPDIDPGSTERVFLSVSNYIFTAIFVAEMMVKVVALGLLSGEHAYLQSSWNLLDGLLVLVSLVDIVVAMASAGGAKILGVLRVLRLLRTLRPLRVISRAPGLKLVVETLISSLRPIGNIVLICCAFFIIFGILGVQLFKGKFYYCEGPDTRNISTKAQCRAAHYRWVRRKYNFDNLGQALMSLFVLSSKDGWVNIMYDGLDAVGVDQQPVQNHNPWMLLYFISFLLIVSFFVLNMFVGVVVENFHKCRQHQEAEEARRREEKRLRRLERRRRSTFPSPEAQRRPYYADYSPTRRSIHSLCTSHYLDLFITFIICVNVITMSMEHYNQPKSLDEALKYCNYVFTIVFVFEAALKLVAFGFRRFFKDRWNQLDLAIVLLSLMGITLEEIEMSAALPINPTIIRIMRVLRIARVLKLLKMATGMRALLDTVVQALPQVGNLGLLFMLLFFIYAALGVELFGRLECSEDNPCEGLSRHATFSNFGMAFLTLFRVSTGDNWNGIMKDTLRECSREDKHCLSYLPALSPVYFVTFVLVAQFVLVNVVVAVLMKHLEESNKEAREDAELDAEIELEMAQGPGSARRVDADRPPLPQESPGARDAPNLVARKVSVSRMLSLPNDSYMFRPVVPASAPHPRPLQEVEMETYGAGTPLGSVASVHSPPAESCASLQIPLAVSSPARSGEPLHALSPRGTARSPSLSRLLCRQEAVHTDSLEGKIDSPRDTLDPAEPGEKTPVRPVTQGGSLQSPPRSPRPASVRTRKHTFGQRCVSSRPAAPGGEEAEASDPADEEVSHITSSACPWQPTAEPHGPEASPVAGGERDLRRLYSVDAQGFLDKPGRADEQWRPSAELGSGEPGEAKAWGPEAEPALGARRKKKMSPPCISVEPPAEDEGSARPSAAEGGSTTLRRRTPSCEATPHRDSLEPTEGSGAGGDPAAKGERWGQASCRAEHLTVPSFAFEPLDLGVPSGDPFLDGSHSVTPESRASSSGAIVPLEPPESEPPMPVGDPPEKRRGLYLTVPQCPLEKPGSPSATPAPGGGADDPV

[3] = target: T1, Short transient receptor potential channel 4 (Mus musculus, UniProt Q9QUQ5); test: calcium entry via TRPC4 opening agents – cell-based, HEK293 TRPC4/mu-opioid, Fluo-4 calcium, dose response (AID 434937); type: functional
T1 sequence (Q9QUQ5 whole entry): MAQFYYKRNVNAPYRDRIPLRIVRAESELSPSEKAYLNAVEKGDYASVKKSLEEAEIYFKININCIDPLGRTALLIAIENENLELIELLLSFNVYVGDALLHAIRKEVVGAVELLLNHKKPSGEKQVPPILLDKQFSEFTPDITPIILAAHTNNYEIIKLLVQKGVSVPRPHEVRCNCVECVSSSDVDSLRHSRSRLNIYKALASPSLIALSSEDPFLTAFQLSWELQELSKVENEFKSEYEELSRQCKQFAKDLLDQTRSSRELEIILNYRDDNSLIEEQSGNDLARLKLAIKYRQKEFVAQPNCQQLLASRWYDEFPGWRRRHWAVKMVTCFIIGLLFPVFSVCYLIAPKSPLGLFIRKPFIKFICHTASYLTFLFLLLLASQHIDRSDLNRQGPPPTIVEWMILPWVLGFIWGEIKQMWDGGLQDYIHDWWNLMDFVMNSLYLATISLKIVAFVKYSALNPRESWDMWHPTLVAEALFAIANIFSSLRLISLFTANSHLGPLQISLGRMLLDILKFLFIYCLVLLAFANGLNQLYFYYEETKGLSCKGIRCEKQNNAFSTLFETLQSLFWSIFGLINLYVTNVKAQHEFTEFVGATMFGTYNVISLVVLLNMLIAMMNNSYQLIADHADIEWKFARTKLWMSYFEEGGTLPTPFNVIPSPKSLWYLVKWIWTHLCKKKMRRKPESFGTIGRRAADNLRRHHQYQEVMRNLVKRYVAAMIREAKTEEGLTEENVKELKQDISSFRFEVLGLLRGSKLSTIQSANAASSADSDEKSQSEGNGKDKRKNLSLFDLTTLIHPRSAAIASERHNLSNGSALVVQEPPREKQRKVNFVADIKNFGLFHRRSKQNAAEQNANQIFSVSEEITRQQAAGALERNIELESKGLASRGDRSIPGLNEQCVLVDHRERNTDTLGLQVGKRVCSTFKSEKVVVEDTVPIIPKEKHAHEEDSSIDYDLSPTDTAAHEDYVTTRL

[4] = target: T2, Corticotropin-releasing factor receptor 2/Corticotropin-releasing factor-binding protein (Homo sapiens, UniProt P24387+Q13324); test: Dose Response confirmation of uHTS hits for small molecule antagonists of the CRF-binding protein and CRF-R2 receptor complex.; type: functional; settings: read-out: IC50_Mean
T2 sequence (Q13324 whole entry): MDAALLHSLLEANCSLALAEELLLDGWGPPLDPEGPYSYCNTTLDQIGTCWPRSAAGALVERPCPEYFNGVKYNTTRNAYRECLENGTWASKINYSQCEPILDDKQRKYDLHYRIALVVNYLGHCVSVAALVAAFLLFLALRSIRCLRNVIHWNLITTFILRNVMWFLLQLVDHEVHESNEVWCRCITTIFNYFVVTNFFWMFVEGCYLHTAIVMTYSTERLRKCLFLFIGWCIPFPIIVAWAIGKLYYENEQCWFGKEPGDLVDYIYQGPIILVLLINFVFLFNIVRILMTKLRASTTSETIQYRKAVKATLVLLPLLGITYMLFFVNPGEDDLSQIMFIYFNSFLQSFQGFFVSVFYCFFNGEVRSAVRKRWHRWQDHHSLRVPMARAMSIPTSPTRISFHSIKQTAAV
T2 sequence (P24387 whole entry): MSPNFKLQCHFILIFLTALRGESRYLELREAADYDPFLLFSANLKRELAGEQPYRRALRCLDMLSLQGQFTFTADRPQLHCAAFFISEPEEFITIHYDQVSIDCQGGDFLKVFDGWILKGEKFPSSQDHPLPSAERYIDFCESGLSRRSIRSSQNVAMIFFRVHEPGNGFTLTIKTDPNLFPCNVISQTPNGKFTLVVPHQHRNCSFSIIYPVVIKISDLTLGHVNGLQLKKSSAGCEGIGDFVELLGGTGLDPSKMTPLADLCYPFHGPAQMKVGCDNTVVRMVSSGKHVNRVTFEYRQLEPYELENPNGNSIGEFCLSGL

[5] = target: T2, Corticotropin-releasing factor receptor 2/Corticotropin-releasing factor-binding protein; test: activators of CRF receptor 2 with binding protein – uHTS hits, confirmation (AID 602473); type: functional; settings: read-out: EC50_Mean
[6] = target: Eukaryotic translation initiation factor 4E (Mus musculus, UniProt P63073); test: blockers of eIF4G binding by eIF4E – biochemical, TR-FRET, dose response (AID 855); type: functional;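 also: potency for disrupting eIF4E binding to eIF4GI seen as loss of FRET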
Sequence of Eukaryotic translation initiation factor 4E (P63073 whole entry): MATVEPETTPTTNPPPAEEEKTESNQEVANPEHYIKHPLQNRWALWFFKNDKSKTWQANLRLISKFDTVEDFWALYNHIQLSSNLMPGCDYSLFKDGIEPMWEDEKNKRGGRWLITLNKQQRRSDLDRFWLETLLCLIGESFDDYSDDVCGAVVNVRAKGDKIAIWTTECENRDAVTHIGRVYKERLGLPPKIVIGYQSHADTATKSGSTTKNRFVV

[7] = viability of PTEN-deleted HCT116 cells – cell-based, HCT116 PTEN knockout, dose response (AID 1047); type: functional;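 also: HCT116 colon tumor cells with PTEN knocked out; cells exposed to compound for 60 hours before readout; potency for loss of cell viability measured by luminescence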
[8] = viability of HCT116 lacking mutant beta-catenin – cell-based, human colon tumor, dose response (AID 1045); type: functional;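 also: HCT116 colon tumor cells with beta catenin knocked out; cells exposed to compound for 60 hours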
Aminopeptidase N = target: T3, Aminopeptidase N (Plasmodium falciparum FcB1/Columbia, UniProt O96935); test: malaria alanyl aminopeptidase activity blockers – biochemical, fluorogenic H-Leu-NHMec substrate, 1536-well (AID 1445); parameters: species or system Plasmodium falciparum 3D7, 3D7
T3 sequence (O96935 whole entry): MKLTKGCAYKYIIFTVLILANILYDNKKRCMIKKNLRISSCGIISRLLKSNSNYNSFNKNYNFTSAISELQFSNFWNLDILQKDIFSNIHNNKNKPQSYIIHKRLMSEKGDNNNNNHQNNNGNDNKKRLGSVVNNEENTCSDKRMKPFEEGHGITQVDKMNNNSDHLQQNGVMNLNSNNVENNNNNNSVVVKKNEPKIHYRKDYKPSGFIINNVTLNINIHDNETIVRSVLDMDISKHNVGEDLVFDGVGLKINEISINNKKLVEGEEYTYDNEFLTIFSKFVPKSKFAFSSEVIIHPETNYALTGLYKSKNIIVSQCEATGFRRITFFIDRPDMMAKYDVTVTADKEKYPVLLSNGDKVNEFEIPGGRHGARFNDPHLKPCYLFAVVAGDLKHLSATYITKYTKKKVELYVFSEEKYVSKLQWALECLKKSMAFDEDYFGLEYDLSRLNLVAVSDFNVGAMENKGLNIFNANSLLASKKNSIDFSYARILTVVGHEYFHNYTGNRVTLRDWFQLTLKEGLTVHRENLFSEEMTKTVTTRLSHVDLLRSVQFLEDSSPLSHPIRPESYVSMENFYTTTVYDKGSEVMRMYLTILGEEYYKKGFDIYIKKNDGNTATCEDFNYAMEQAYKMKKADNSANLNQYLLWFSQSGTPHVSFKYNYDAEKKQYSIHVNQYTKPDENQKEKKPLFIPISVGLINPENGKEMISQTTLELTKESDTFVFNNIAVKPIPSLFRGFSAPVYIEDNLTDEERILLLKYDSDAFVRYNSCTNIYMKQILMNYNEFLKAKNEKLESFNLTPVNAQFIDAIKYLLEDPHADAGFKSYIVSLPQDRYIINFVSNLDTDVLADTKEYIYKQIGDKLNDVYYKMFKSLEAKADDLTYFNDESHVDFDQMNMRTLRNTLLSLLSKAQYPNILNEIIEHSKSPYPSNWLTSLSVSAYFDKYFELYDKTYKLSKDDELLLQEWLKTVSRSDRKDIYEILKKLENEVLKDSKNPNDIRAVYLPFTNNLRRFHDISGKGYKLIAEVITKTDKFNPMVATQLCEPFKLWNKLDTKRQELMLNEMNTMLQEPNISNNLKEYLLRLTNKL

[9] = blockers of CRF-binding protein–CRF-R2 complex – cell-based, uHTS hits, 384-well, dose response (AID 651639); type: functional, Homo sapiens; settings: read-out: IC50_Mean

Sequence of Cytochrome P450 3A4 (P08684 whole entry): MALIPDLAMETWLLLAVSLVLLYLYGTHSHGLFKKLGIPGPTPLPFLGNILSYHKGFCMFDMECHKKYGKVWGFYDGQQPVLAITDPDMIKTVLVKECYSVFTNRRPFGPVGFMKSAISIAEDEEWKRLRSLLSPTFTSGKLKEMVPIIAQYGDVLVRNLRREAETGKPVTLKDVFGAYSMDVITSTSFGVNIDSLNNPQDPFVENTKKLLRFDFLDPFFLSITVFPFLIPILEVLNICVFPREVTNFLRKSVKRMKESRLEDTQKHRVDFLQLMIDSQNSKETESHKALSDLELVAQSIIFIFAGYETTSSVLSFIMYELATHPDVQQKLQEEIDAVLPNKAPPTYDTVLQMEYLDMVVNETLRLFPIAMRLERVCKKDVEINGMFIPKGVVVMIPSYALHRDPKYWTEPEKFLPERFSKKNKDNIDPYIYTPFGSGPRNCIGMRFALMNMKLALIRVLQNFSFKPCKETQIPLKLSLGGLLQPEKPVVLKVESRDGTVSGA

AC50 (Cytochrome P450 3A4): 25.1 µM (inconclusive)
Structure (SMILES): CC1(C(=O)NCCN2CCOCC2)C=CCN1C(=O)c1ccccc1 (configuration not stated)

EC50 (Kallikrein-7): 49.5 µM (inactive)
Structure (SMILES): CCCC(=O)Nc1c(-c2ccc(OC)cc2)c(=O)c2ccccc2n1C

EC50 [3]: 1.06 µM (active)
Structure (SMILES): CCOC(=O)c1oc2ccc(OC)cc2c1NC(=O)CN1CCN(C)CC1

EC50 [3]: 4.73 µM (active) | IC50 [4]: > 47.1 µM (inactive) | EC50 [5]: > 53 µM (inactive)
Structure (SMILES): Cc1onc(-c2c(F)cccc2Cl)c1C(=O)N1CCN(c2ncc(Br)cn2)CC1

EC50 [3]: 0.299 µM (active)
Structure (SMILES): Cc1oc(-c2ccccc2Cl)nc1C[S+]([O-])CC(=O)NCCCN1CC(C)CC(C)C1 (configuration not stated)

IC50 [6]: > 64 µM (inactive)
Structure (SMILES): Cc1cc(C)n(-c2nnc3n2N=C(c2ccccc2)CS3)n1

EC50 (Kallikrein-7): > 69.5 µM (inactive)
Structure (SMILES): CC1=C(C#N)C(c2cccnc2)C2=C(O)CC(C)(C)CC2=N1 (configuration not stated)

IC50 (Aminopeptidase N): 38.1 µM (active) | IC50 [4]: 25.5 µM (active) | EC50 [5]: > 53 µM (inactive) | IC50 [9]: > 20 µM (inactive)
Structure (SMILES): CC(C)N1C(=O)S/C(=C/c2ccccc2OCc2ccc(C(=O)O)cc2)C1=O

The remaining lines, values behind:

Structure (SMILES): CSCc1nnc(NC(=O)c2ccc(S(=O)(=O)N(CC(C)C)CC(C)C)cc2)o1
EC50 [1]: 1.01 µM (active) | EC50 (Streptococcus): 2.51 µM (active) | EC50 [2]: 3.07 µM (active)

Structure (SMILES): Cc1sc(NC(=O)Cn2nc(C(F)(F)F)cc2C)c(C(=O)OC(C)C)c1C
IC50 [6]: > 64 µM (inactive)

Structure (SMILES): C=CCCCCCCCCCCC/C=C/C(O)COC(C)=O (configuration not stated) [DEHYDROAVOCATIN-1-ACETATE]
AC50 (Cytochrome P450 3A4): 39.8 µM (inconclusive)

Structure (SMILES): CCCN(CCC)CCCNC(=O)c1ccc2c(Cl)c3c(nc2c1)CCC3
EC50 [3]: 0.0107 µM (active)

Structure (SMILES): CCOC(=O)c1c(CSC(=N)N)n(-c2ccc(Br)cc2)c2cc(Br)c(OC(C)=O)cc12
EC50 [7]: 16.1 µM (active) | EC50 [8]: 14.3 µM (active) | IC50 [6]: > 64 µM (inactive)

Reference: ChEMBL document CHEMBL1201862, “PubChem BioAssay data set” (2004)
